From paper PMC11714206, “Massively Parallel Screening of Toll/Interleukin‐1 Receptor (TIR)‐Derived Peptides Reveals Multiple Toll‐Like Receptors (TLRs)‐Targeting Immunomodulatory Peptides” (Advanced Science, 2024)
One block for each sequence: values may come before it.

Target: T1, MAL^TIR (Homo sapiens, UniProt P58753)
T1 construct: MAL (residues 79–221); 6xHis; made in house; host or cells: E. coli BL21 (DE3)
Assay: T‐Surf phage library (P8 and P3) selection against MAL^TIR, four rounds, NGS read counts
Type: binding
Conditions: for P3_MAL Rank (after) / P3_MAL Rank (before): P3 library; for Population: 4th round of selection against MAL TIR, share of NGS reads; for P8_MAL Rank (after) / P8_MAL Rank (before): P8 library
How it was run: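 Four panning rounds on TIR domain adsorbed at 5 µg mL^−1; binding 1 h at 20–22 °C, elution with 100 mM HCl. Output: NGS read counts of round‐4 pools versus naïve library.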

[1] = selection against MAL, rank after grouping
[2] = selection against MAL, rank before grouping
[3] = P3_MAL: rank by count after grouping
[4] = P3_MAL: rank by count before grouping
[5] = P3_MAL pool: P3 T-Surf phage library
[6] = selection against MAL, rank by count after grouping
[7] = selection against MAL, rank by count before grouping
[8] = selection against MAL TIR, rank by count after grouping
[9] = selection against MAL TIR, rank by count before grouping
[10] = P8_MAL: rank by count after grouping
[11] = P8_MAL: rank by count before grouping
[12] = 4R selection against MAL, rank after grouping
[13] = 4R selection against MAL, rank before grouping
[14] = P8_MAL pool: P8 T-Surf phage library

T1 sequence (P58753 79-221): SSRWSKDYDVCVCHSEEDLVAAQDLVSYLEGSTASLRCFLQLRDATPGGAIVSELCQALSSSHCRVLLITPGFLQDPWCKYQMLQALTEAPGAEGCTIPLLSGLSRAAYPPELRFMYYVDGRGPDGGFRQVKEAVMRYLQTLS

P3_MAL Rank (after) [1]: 525
P3_MAL Rank (before) [2]: 3171
Sequence: SSFREGLWHLLELTKT

Rank (after) [3]: 460
Rank (before) [4]: 1354
Sequence: YAFTGPPHRYMVQRGV

Rank (after) [3]: 400
Rank (before) [4]: 2492
Sequence: RLLKWKKRCISFIAG

Population [5]: 0.00413%
Sequence: PNLRTKVLNYLMRIKT

Population [5]: 0.00451%
Sequence: YAFTDHLHRYLVQRGV

P3_MAL Rank (after) [6]: 689
P3_MAL Rank (before) [7]: 1984
Sequence: DTALTNSGFHIFRDNE

P3_MAL Rank (after) [8]: 199
P3_MAL Rank (before) [9]: 1440
Sequence: YAFTGHLNRSLVQRGV

P8_MAL Rank (after) [8]: 221
P8_MAL Rank (before) [9]: 1149
Sequence: WFYELLVSLLLRDTKV

Rank (after) [3]: 436
Rank (before) [4]: 1289
Sequence: WHFPLPLRMQELLRKM

Population [5]: 0.00488%
Sequence: SSFREGLWRRLELSKK

Rank (after) [10]: 470
Rank (before) [11]: 2626
Sequence: TFLDTLLNKLAQAAIH

P3_MAL Rank (after) [6]: 735
P3_MAL Rank (before) [7]: 3480
Sequence: NNLFNELVSKNIRTFT

P3_MAL Rank (after) [1]: 545
P3_MAL Rank (before) [2]: 3495
Sequence: KWFWDKLIYALSRIR

Rank (after) [10]: 439
Rank (before) [11]: 1507
Sequence: YFLHFMLFRRRGTEYI

Rank (after) [3]: 420
Rank (before) [4]: 1447
Sequence: YAFTGHQHNYMVQRGV

P8_MAL Rank (after) [12]: 655
P8_MAL Rank (before) [13]: 1590
Sequence: AFFCTQLLNVLRKPTI

Rank (after) [10]: 170
Rank (before) [11]: 1156
Sequence: WFYERLVSLLLRATKV

P3_MAL Rank (after) [8]: 280
P3_MAL Rank (before) [9]: 2694
Sequence: PNLRTKLLNYLIRTKT

Rank (after) [3]: 109
Rank (before) [4]: 250
Sequence: RGFLSHLHRYLVQRGV

P3_MAL Rank (after) [8]: 203
P3_MAL Rank (before) [9]: 733
Sequence: YAFTGHLHRYLVQRSGI

Rank (after) [3]: 472
Rank (before) [4]: 2884
Sequence: HQAFWKRPWAKLKPPT

P8_MAL Rank (after) [8]: 214
P8_MAL Rank (before) [9]: 1836
Sequence: AFLYTFLINDPSDQF

P3_MAL Rank (after) [12]: 671
P3_MAL Rank (before) [13]: 2132
Sequence: LHNNRILVLITLPTNV

P8_MAL Rank (after) [8]: 284
P8_MAL Rank (before) [9]: 1106
Sequence: CFYEGQLFLALADKSI

P8_MAL Rank (after) [8]: 244
P8_MAL Rank (before) [9]: 2057
Sequence: LFFCESLKQLLRSDGH

Rank (after) [10]: 111
Rank (before) [11]: 2159
Sequence: LLFWGSLKQLLRSDGR

P3_MAL Rank (after) [12]: 651
P3_MAL Rank (before) [13]: 1227
Sequence: WFWVKLLYALTYRPGI

Rank (after) [3]: 144
Rank (before) [4]: 508
Sequence: YAFTGHLHRYLCSVA

P8_MAL Rank (after) [1]: 520
P8_MAL Rank (before) [2]: 1306
Sequence: WFYNHLVSLFLRDTKV

Population [5]: 0.00488%
Sequence: SSFREGLWRLLELIKK

Rank (after) [3]: 389
Rank (before) [4]: 2337
Sequence: RYIMPHPQELIQKNS

P8_MAL Rank (after) [6]: 696
P8_MAL Rank (before) [7]: 1633
Sequence: AFFWAQLKSVLRTQTM

Population [5]: 0.00676%
Sequence: YAFTGHLHRYLVQLGV

P3_MAL Rank (after) [12]: 587
P3_MAL Rank (before) [13]: 2929
Sequence: MERVKAFHQRLKTALGH

Population [14]: 0.00309%
Sequence: WFYERLVSLILRDTKE

Population [5]: 0.00376%
Sequence: DLFLSKLSQHILKREK

Rank (after) [3]: 412
Rank (before) [4]: 1644
Sequence: VELAQVRKQRDAGEKV

P3_MAL Rank (after) [12]: 614
P3_MAL Rank (before) [13]: 3674
Sequence: KMQKWKDALYEAANE

Population [5]: 0.00376%
Sequence: ARLPAICIVIWCSVAX

Rank (after) [10]: 467
Rank (before) [11]: 2088
Sequence: LFFWESLKPLPRRDGR

P8_MAL Rank (after) [1]: 512
P8_MAL Rank (before) [2]: 1816
Sequence: AFLYPFLINLTHPTIP

Rank (after) [3]: 428
Rank (before) [4]: 3626
Sequence: KLRAWRDALRNIANIF

Rank (after) [3]: 479
Rank (before) [4]: 1335
Sequence: YFWNALENALAVNNDV

P8_MAL Rank (after) [8]: 223
P8_MAL Rank (before) [9]: 1830
Sequence: AFLYTFLLNLTHPTNL

Population [14]: 0.00278%
Sequence: YFLHFLLFSRLETEYI

Rank (after) [3]: 464
Rank (before) [4]: 3174
Sequence: SSFREGLSPLAELSGK

P8_MAL Rank (after) [12]: 627
P8_MAL Rank (before) [13]: 1563
Sequence: VFFWAQLKKVLRNPTR

P3_MAL Rank (after) [12]: 599
P3_MAL Rank (before) [13]: 3565
Sequence: KEVEGWRDALTQAAN

Rank (after) [3]: 187
Rank (before) [4]: 907
Sequence: RLLKWGYPWFWDRLRFA

Population [14]: 0.00309%
Sequence: AFLYTFLINLTHPSNF

Population [14]: 0.0034%
Sequence: AFLYTFLINLTHPTNS

Rank (after) [3]: 176
Rank (before) [4]: 3342
Sequence: NQWRNSLTAAANLSGR

Rank (after) [10]: 395
Rank (before) [11]: 1438
Sequence: SFLHFLLLSRPETAYI
